The Kd is the free concentration of one partner at which half of the binding sites on the other are occupied at equilibrium, for simple one-to-one binding.

Experimental findings from PMC4995097, “Talin-KANK1 interaction controls the recruitment of cortical microtubule stabilizing complexes to focal adhesions” (eLife, 2016) are described below.

The target in one assay is T1, Talin1 R7-R8 (1357–1659) (Mus musculus, UniProt P26039).
T1 construct: peptides to Talin1 R7-R8 (1357–1659) was measured using a Fluorescence Polarization assay; His-tag (cleaved yes); made in house; host or cells: E. coli BL21(DE3)
As to the kind of experiment: Fluorescence polarization binding of BODIPY-labeled KANK peptides to talin1 R7-R8. Conditions: Fluorescence polarization; 0.5 μM BODIPY TMR-labeled peptide, increasing talin R7-R8, PBS, room temperature; one site total and non-specific binding; ± SE, triplicate; panel F; read-out: Dissociation constant (Kd), Fig. 2F. Set-up: species or system murine. On the technique in general: Fluorescence polarisation rises when a labelled molecule tumbles more slowly, as on binding a larger partner.

Another assay concerns the target T2, R7-R8 S1641E (Mus musculus, UniProt P26039, S1641E).
T2 construct: His-tag (cleaved yes); made in house; host or cells: E. coli BL21(DE3)
As to the kind of experiment: Fluorescence polarization binding to talin1 R7-R8 S1641E. Set-up: species or system murine. Conditions: 0.5 μM BODIPY TMR-labeled peptide, PBS, room temperature, ± SE, triplicate, panel G, read-out: Dissociation constant (Kd), S1641E. The text has this: The cDNAs encoding murine talin1 residues 1357–1653 (R7-R8), 1357–1653 Δ1454–1586 (R7) and 1461–1580 (R8) were synthesized by PCR using a mouse talin1 cDNA as template and cloned into the expression vector pet151-TOPO (Invitrogen) ([Gingras et al., 2010]). Talin mutants were synthesized by GeneArt. Talin polypeptides were expressed in E. coli BL21(DE3) cultured either in LB for unlabeled protein, or in M9 minimal medium for the preparation of isotopically labeled samples for NMR. Recombinant His-tagged talin polypeptides were purified by nickel-affinity chromatography following standard procedures. The His-tag was removed by cleavage with AcTEV protease (Invitrogen), and the proteins were further purified by anion-exchange. Protein concentrations were determined using their respective extinction coefficient at 280 nm.
KANK peptides with a C-terminal cysteine residue were synthesized by Biomatik (USA):
Fluorescence Polarization was carried out on KANK peptides with a carboxy terminal cysteine. […]
The Fluorescence Polarization assay was carried out on a black 96well plate (Nunc). […] Fluorescence Polarization measurements were recorded on a BMGLabTech CLARIOstar plate reader at room temperature and analyzed using GraphPad Prism (version 6.07). Kd values were calculated with a nonlinear curve fitting using a one site total and non-specific binding model.

The next assay concerns GFP-talin1. The assay is described as follows: Streptavidin pull down of BioGFP-KANK1 constructs with GFP-talin1, Western blot. It counts as binding, mouse. The settings on record: 4A mutation introduced into the construct; HEK293T cells, Figure 3A. The text has this: BioGFP-tagged KANK1 mutants were constructed using PCR and pBioGFP-C1 vector as previously described ([van der Vaart et al., 2013]). Rescue constructs for BioGFP-tagged KANK1 were either based on the version previously described ([van der Vaart et al., 2013]) or a version obtained by PCR-based mutagenesis of the sequence […] to […]. mCherry-tagged paxillin construct was made by replacing GFP from pQC-GPXN ([Bouchet et al., 2011]) by mCherry (pmCherry-C1, Clontech). TagRFP-tagged paxillin construct was made by PCR-based amplification and cloning in pTagRFP-T-C1 (kind gift from Y. Mimori-Kiyosue, Riken Institute, Japan). HA-tagged KANK1 construct was generated by cloning KANK1 coding sequence into pMT2-SM-HA (gift of C. Hoogenraad, Utrecht University, The Netherlands). pLVX-IRES-Neo (pLVIN) vectors was constructed by cloning the IRES-neomycin resistance cassette from the pQCXIN plasmid (Clontech) into the pLVX-IRES-Puro plasmid (Clontech). […]
Streptavidin-based pull down assays of biotinylated proteins expressed using pBioGFP-C1 constructs transfected in HEK293T cells was performed and analyzed as previously described ([van der Vaart et al., 2013]). […] For RP-nanoLC-MS/MS, samples were resuspended in 10% formic acid (FA) / 5% DMSO and was analyzed using a Proxeon Easy-nLC100 (Thermo Scientific) connected to an Orbitrap Q-Exactive mass spectrometer. […]

Assay [1] deals with focal adhesions in HeLa cells. As to the kind of experiment: TIRFM localization of GFP-tagged KANK1 constructs relative to focal adhesions. The settings on record: live HeLa cells with mCherry- or TagRFP-paxillin. It counts as cell-based, human. Here is the method: HeLa Kyoto cell line was described previously ([Lansbergen et al., 2006]; [Mimori-Kiyosue et al., 2005]). HEK293T cells were purchased from ATCC; culture and transfection of DNA and siRNA into these cell lines was performed as previously described ([van der Vaart et al., 2013]). HaCaT cells were purchased at Cell Line Service (Eppelheim, Germany) and cultured according to manufacturer’s instructions. The cell lines were routinely checked for mycoplasma contamination using LT07-518 Mycoalert assay (Lonza, Switzerland).The identity of the cell lines was monitored by immunofluorescence-staining-based analysis with multiple markers. Blebbistatin was purchased from Enzo Life Sciences and used at 50 μM. Serum starvation in HeLa cells was done for 48 hr and focal adhesion assembly was stimulated by incubation with fetal calf serum-containing medium with or without blebbistatin for 2 hr. ROCK1 inhibitor Y-27632 was purchased at Sigma-Aldrich and used at 1 or 10 μM. Double stable HeLa cell line expressing GFP-KANK1 and TagRFP-paxillin was made by viral infection. We used a pLVIN-TagRFP-paxillin-based lentivirus and a pQC-GFP-KANK1-based retrovirus packaged in HEK293T cells using respectively Lenti-X HTX packaging and pCL-Ampho vectors. Antibiotic selection was applied to cells 48 hr after infection using 500 μg/ml G418 (Geneticin, Life Technologies) and 1 μg/ml puromycin (InvivoGen). […]

T2 sequence (P26039 1357-1659 S1641E): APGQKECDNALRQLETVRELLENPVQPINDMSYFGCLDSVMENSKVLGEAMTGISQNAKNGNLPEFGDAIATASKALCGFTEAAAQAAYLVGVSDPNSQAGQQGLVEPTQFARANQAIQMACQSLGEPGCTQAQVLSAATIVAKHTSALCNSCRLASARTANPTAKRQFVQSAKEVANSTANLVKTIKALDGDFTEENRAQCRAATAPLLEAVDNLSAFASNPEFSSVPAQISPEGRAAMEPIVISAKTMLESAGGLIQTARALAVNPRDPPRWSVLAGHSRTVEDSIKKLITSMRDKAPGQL
T1 sequence (P26039 1357-1659): as the sequence (P26039 1357-1659 S1641E) above, with E285S counted along it

For `CC[C@H](C)[C@H](NC(=O)[C@H](CC(=O)O)NC(=O)[C@H](CC(=O)O)NC(=O)[C@@H](NC(=O)[C@H](Cc1ccc(O)cc1)NC(=O)[C@H](CCCCN)NC(=O)[C@@H](NC(=O)[C@H](Cc1ccccc1)NC(=O)[C@H](CC(=O)O)NC(=O)[C@H](CC(C)C)NC(=O)[C@H](CC(=O)O)NC(=O)[C@H](CC(C)C)NC(=O)[C@H](CCC(N)=O)NC(=O)[C@H](Cc1ccccc1)NC(=O)CNC(=O)[C@H](Cc1ccc(O)cc1)NC(=O)[C@@H]1CCCN1C(=O)[C@@H](NC(=O)[C@H](CCC(=O)O)NC(=O)[C@@H](NC(=O)[C@H](Cc1ccccc1)NC(=O)[C@H](Cc1ccc(O)cc1)NC(=O)[C@@H]1CCCN1)C(C)C)[C@@H](C)O)C(C)C)C(C)C)C(=O)N[C@@H](CCC(N)=O)C(=O)N[C@@H](CCCCN)C(=O)NCC(=O)N[C@@H](CC(N)=O)C(=O)N[C@H](C(=O)N[C@H](C(=O)N[C@@H](CCCCN)C(=O)N[C@@H](CCCCN)C(=O)N[C@@H](CS)C(=O)O)[C@@H](C)CC)[C@@H](C)O` [KANK1(30–60)C], the Kd on Talin1 R7-R8 (1357–1659) was 800 ± 100 nM; on R7-R8 S1641E, 2100 ± 400 nM.
With “KN domain: GFP-tagged KN domain of KANK1 (residues 30–68)”, the “effect of 4A mutation on interaction with talin1 (in words)” value in the assay with GFP-talin1 was “An even stronger reduction was observed”. For the same compound, the “localization relative to FAs, endogenous KANK1/2 present (in words)” value in assay [1] was “strongly and specifically accumulated within FAs”.
